The values below come from publication PMC12298270, “Development and Validation of a New LC-MS/MS Method for Simultaneous Quantification of Ivacaftor, Tezacaftor and Elexacaftor Plasma Levels in Pediatric Cystic Fibrosis Patients” (Pharmaceuticals, 2025).

Each structure is given as a SMILES string. Read-outs that look alike come from different tables or passages of the source.

For orientation: Tmax means the time from dosing to the highest level.

Data set [1] in a line: Long-term −80 °C stability of authentic patient plasma samples. Format: physicochemical, human. To be noted: for Stability, % of the first measurement: n = 3 T0 and T4 patients' samples, −80 °C, five months; for Stability (%) mean ± SD, T0 samples / Stability (%) mean ± SD, T4 samples: patient plasma n = 3, stored at −80 °C, 5 months vs Time 0. Here is the method:
We have also evaluated the stability of prepared low-, medium- and high-QC samples following one cycle of freezing (−80 °C) and thawing (after 12 days). The calculated stability for ivacaftor, tezacaftor and elexacaftor was 100–107% after 12 days. Patient samples (n = 3 T0 and T4) were randomly selected and re-analyzed after being stored at −80 °C over a period of five months. Compared to the first measurement (time 0), the stability ranged from 85.48 ± 19.83% (mean ± SD) for IVA T4 to 90.55 ± 2.42% for ELX T0 (Supplementary Table S2). Autosampler stability was tested by analyzing IVA, TEZ and ELX concentrations in QCs maintained at room temperature at time 0 (corresponding to preparation of QC samples and to the first measurement) and after 24 h (short-term stability) or 9 days (long-term stability). We also evaluated, on prepared low-, medium- and high-QC samples, the stability following one cycle of freezing (−80 °C) and thawing (after 12 days). To further assess long-term stability, n = 3 T0 and T4 of authentic samples, stored at −80 °C over a period of five months, were randomly chosen and re-analyzed. The percentage difference between the concentration measured at each sampling point and the initial concentration was calculated. Based on ICH guideline M10, a percentage difference below the 15% was considered acceptable.

On the set-up of data set [2]: method as in PMID 36831163. To be noted: cited from earlier work.
The nature of data set [3]: Short- and long-term autosampler stability of prepared QC samples at room temperature. Format: physicochemical. To be noted: for Stability (%): autosampler; for 9-day autosampler stability: across L-, M- and H-QC levels. As to the method:
Both short- and long-term stability were evaluated on prepared QC samples kept at room temperature for a maximum of 9 days. After 24 h from QC sample preparation and first assessment (Time 0), the stability was around 100% for all QC samples. […] Autosampler stability was tested by analyzing IVA, TEZ and ELX concentrations in QCs maintained at room temperature at time 0 (corresponding to preparation of QC samples and to the first measurement) and after 24 h (short-term stability) or 9 days (long-term stability). We also evaluated, on prepared low-, medium- and high-QC samples, the stability following one cycle of freezing (−80 °C) and thawing (after 12 days). To further assess long-term stability, n = 3 T0 and T4 of authentic samples, stored at −80 °C over a period of five months, were randomly chosen and re-analyzed. The percentage difference between the concentration measured at each sampling point and the initial concentration was calculated. Based on ICH guideline M10, a percentage difference below the 15% was considered acceptable.

On the set-up of data set [4]: method as in ref 22 = [22]; 22. Kaftrio®, Summary of Product Characteristics (SmPC), European Medicine Agency (EMA) Available online: https://www.ema.europa.eu/en/medicines/human/EPAR/kaftrio (accessed on 3 March 2024). To be noted: cited from earlier work.
Details of data set [5]: method as in PMID 36015300. To be noted: cited from earlier work.
The mark [6] stands for this setting: H-QC (18 µg/mL), 24 H vs Time 0.
Setting [7] is: H-QC (18 µg/mL), Day 9 vs Time 0.
[8] abbreviates: L-QC (0.3 µg/mL), 24 H vs Time 0.
The mark [9] stands for this setting: L-QC (0.3 µg/mL), Day 9 vs Time 0.
Where [10] appears, read: M-QC (8 µg/mL), Day 9 vs Time 0.
The mark [11] stands for this setting: Kaftrio drug registration documents.

As to `CC(C)(C)c1cc(C(C)(C)C)c(NC(=O)c2c[nH]c3ccccc3c2=O)cc1O` [IVA, Ivacaftor], the “Stability, % of the first measurement” value in data set [1] is on record as “higher than 85%”. Moreover, the “Stability (%) mean ± SD, T0 samples” value in data set [1] turned out to be 86.96 ± 3.98%. The “Stability (%) mean ± SD, T4 samples” value in data set [1] was 85.48 ± 19.83%. In addition, the “Ctrough, mean ± SD” value in data set [2] (adult patients) is reported as 0.90 ± 0.37 µg/mL; in data set [2] (children), 0.71 ± 0.20 µg/mL. For the same compound, the “Stability (%)” value is reported as 101.29% in data set [3] (setting [6]); 73.54% in data set [3] (setting [7]); 101.51% in data set [3] (setting [8]); 75.75% in data set [3] (setting [9]); 99.88% in data set [3] (M-QC (8 µg/mL), 24 H vs Time 0); 78.27% in data set [3] (setting [10]). Also, the 9-day autosampler stability is recorded as 76% in data set [3] (9 days from day 0) and 73.54–78.27% in data set [3] (9 days from day 0, listed as ivacaftor). Also, the “AUC0–12h, mean ± SD” value in data set [4] (setting [11]) was 11.7 ± 4.01 µg·h/mL. Further, in data set [4] (setting [11]), the “Cmax, mean ± SD” value is listed as 1.24 ± 0.34 µg/mL.
Regarding `CC(C)(CO)c1cc2cc(NC(=O)C3(c4ccc5c(c4)OC(F)(F)O5)CC3)c(F)cc2n1C[C@@H](O)CO` [TEZ, Tezacaftor], in data set [1], the “Stability, % of the first measurement” value is on record as “higher than 85%”. The “Stability (%) mean ± SD, T0 samples” value in data set [1] turned out to be 89.35 ± 4.87%. Also, the “Stability (%) mean ± SD, T4 samples” value in data set [1] amounted to 85.51 ± 11.87%. In addition, the Tmax in data set [5] is recorded as 3 h. The “Stability (%)” value in data set [3] (setting [6]) stood at 101.39%; in data set [3] (setting [7]), 105.83%; in data set [3] (setting [8]), 96.55%; in data set [3] (setting [9]), 103.79%; in data set [3] (M-QC (8 µg/mL), 24 H vs Time 0), 100.12%; in data set [3] (setting [10]), 105.32%. The “Effect of simultaneous ingestion of fatty food on exposure” value in data set [4] (Kaftrio SmPC) is recorded as “not affected”.
